From patent US12252470B2, “Lipids and nanoparticle compositions thereof” (Generation Bio Co., priority 2020, dated 2025)

Legend:
[1] = tested on: ceDNA-luciferase (ceDNA-luc); assay: In vivo ceDNA-luc expression by IVIS imaging after IV dosing of LNPs; parameters: species or system CD-1 mice; conditions: for luciferase expressions and/or activity compared to SS-OP LNP / luciferase expressions and/or activity compared to positive control SS-OP ceDNA LNPs / luciferase activity compared to positive control SS-OP ceDNA LNP / luciferase expression and/or activity compared to positive control SS-OP ceDNA LNP: Day 4; for luciferase expressions and/or activity compared to SS-OP LNP: 0.25 mg/kg IV; for luciferase expressions and/or activity compared to positive control SS-OP ceDNA LNPs: Study A, vs LNPs 1, 2 and 7-12 (SS-OP), FIG. 1; for luciferase expressions and/or activity compared to positive control SS-OP ceDNA LNPs / luciferase activity compared to positive control SS-OP ceDNA LNP: 0.25 mg/kg IV once on Day 0; for luciferase activity compared to positive control SS-OP ceDNA LNP: Study B, vs LNP 13 (SS-OP), FIG. 2; for luciferase expression and/or activity, rank among lipids tested: Studies A and B; for luciferase expression and/or activity compared to positive control SS-OP ceDNA LNP: Study C, at both 25 mg/kg and 1 mg/kg, vs LNP 19 (SS-OP), FIG. 3
Experimental: Lipid nanoparticles (LNP) were prepared at a total lipid to ceDNA weight ratio of approximately 10:1 to 30:1. Briefly, an ionizable lipid of the present invention, a non-cationic lipid (e.g., distearoylphosphatidylcholine (DSPC)), a component to provide membrane integrity (such as a sterol, e.g., cholesterol) and a conjugated lipid molecule (such as a PEG-lipid, e.g., 1-(monomethoxy-polyethyleneglycol)-2,3-dimyristoylglycerol, with an average PEG molecular weight of 2000 (“PEG-DMG”)), were solubilized in alcohol (e.g., ethanol) at a molar ratio of, for example, 50:10:37:3 or 20:40:38:2. The ceDNA was diluted to a desired concentration in buffer solution. For example, the ceDNA were diluted to a concentration of 0.1 mg/ml to 0.25 mg/ml in a buffer solution comprising sodium acetate, sodium acetate and magnesium chloride, citrate, malic acid, or malic acid and sodium chloride. In one example, the ceDNA was diluted to 0.2 mg/mL in 10 to 50 mM citrate buffer, pH 4. The alcoholic lipid solution was mixed with ceDNA aqueous solution using, for example, syringe pumps or an impinging jet mixer, at a ratio of about 1:5 to 1:3 (vol/vol) with total flow rates above 10 ml/min. In one example, the alcoholic lipid solution was mixed with ceDNA aqueous at a ratio of about 1:3 (vol/vol) with a flow rate of 12 ml/min. The alcohol was removed, and the buffer was replaced with PBS by dialysis. Alternatively, the buffers were replaced with PBS using centrifugal tubes. Alcohol removal and simultaneous buffer exchange were accomplished by, for example, dialysis or tangential flow filtration. The obtained lipid nanoparticles are filtered through a 0.2 µm pore sterile filter.
In one study, lipid nanoparticles comprising exemplary ceDNAs were prepared using a lipid solution comprising SS-OP, DSPC, Cholesterol and DMG-PEG2000 (mol ratio 50:10:37:3) as control. In some examples, a tissue target moiety like N-Acetylgalactosamine (GalNAc) was included. A GalNAc moiety such as tri-antennary GalNAc (GalNAc3) or tetra-antennary GalNAc (GalNAc4) can be synthesized as known in the art (see, WO2017/084987 and WO2013/166121) and chemically conjugated to lipid or PEG as well-known in the art (see, Resen et al., J. Biol. Chem. (2001) “Determination of the Upper Size Limit for Uptake and Processing of Ligands by the Asialoglycoprotein Receptor on Hepatocytes in Vitro and in Vivo” […]). Aqueous solutions of ceDNA in buffered solutions were prepared. The lipid solution and the ceDNA solution were mixed using an in-house procedure on a NanoAssembler at a total flow rate of 12 mL/min at a lipid to ceDNA ratio of 1:3 (v/v).
(§1) Species (number, sex, age): CD-1 mice (N=65 and 5 spare, male, about 4 weeks of age at arrival).
(§2) Dose Administration: Test articles (LNPs: ceDNA-Luc) were dosed at 5 mL/kg on Day 0 for Groups 1-38 by intravenous administration to lateral tail vein.
• Luciferin stock powder was stored at nominally −20° C. • Stored formulated luciferin in 1 mL aliquots at 2-8° C. protect from light. • Formulated luciferin was stable for up to 3 weeks at 2-8° C., protected from light and stable for about 12 hrs at room temperature (RT). • Dissolved luciferin in PBS to a target concentration of 60 mg/mL at a sufficient volume and adjusted to pH=7.4 with 5-M NaOH (about 0.5 μl/mg luciferin) and HCl (about 0.5 μL/mg luciferin) as needed. • Prepared the appropriate amount according to protocol including at least a about 50% overage. […]

[2] = Tolerability in mice as measured by change in body weight; type: in vivo; conditions: body weight at Day 1, 0.25 mg/kg IV
Experimental: as §1
Clinical Observations: Clinical observations were performed about 1, about 5 to about 6 and about 24 hours post the Day 0 Test Material dose. Additional observations were made per exception. Body weights for all animals, as applicable, were recorded on Days 0, 1, 2, 3, 4 & 7 (prior to euthanasia). Additional body weights were recorded as needed.
as §2

[3] = Study E, vs LNP 27 (SS-OP), FIG. 5A
[4] = Study E, outlier data point in LNP 30 excepted, FIG. 5B
[5] = Study D, vs LNP 23 (SS-OP), FIG. 4A
[6] = Study D, control Ionizable Lipid A (LNP 22), FIG. 4B

| SMILES | luciferase expressions and/or activity compared to SS-OP LNP [1, 3] | tolerability (change in body weight) [2, 4] | luciferase expressions and/or activity compared to positive control SS-OP ceDNA LNPs [1] | luciferase activity compared to positive control SS-OP ceDNA LNP [1] | luciferase expressions and/or activity compared to SS-OP LNP [1, 5] | tolerability (change in body weight) [2, 6] | other results |
| --- | --- | --- | --- | --- | --- | --- | --- |
| CCCCCCCCCOC(=O)CCCCCCCC(=O)Oc1ccc(CC(=O)OCCC2CCN(CCSSCCN3CCC(CCOC(=O)Cc4ccc(OC(=O)CCCCCCCC(=O)OC(CC)CCCCCCCC)cc4)CC3)CC2)cc1 (stereo not drawn) [Lipid 9, 1-nonyl 9-(4-(2-oxo-2-(2-(1-(2-((2-(4-(2-(2-(4-((9-oxo-9-(undecan-3-yloxy)nonanoyl)oxy)phenyl)acetoxy)ethyl)piperidin-1-yl)ethyl)disulfaneyl)ethyl)piperidin-4-yl)ethoxy)ethyl)phenyl) nonanedioate] | equivalent or higher | did not cause significant changes in body weight | – | – | – | – | – |
| CCCCCCCCCOC(=O)CCCC(=O)Oc1ccc(CC(=O)OCCC2CCN(CCSSCCN3CCC(CCOC(=O)Cc4ccc(OC(=O)CCCCCCCC(=O)OC(CCCCCCCC)CCCCCCCC)cc4)CC3)CC2)cc1 [Lipid 2, 1-(heptadecan-9-yl) 9-(4-(2-(2-(1-(2-((2-(4-(2-(2-(4-((5-(nonyloxy)-5-oxopentanoyl)oxy)phenyl)acetoxy)ethyl)piperidin-1-yl)ethyl)disulfaneyl)ethyl)piperidin-4-yl)ethoxy)-2-oxoethyl)phenyl) nonanedioate] | – | – | equivalent or higher | equivalent or higher | – | – | – |
| CCCCCCCCCOC(=O)CCCCCCCC(=O)Oc1ccc(CC(=O)OCCC2CCN(CCSSCCN3CCC(CCOC(=O)Cc4ccc(OC(=O)CCCCCCCC(=O)OC(CCCCCCCC)CCCCCCCC)cc4)CC3)CC2)cc1 [Lipid 3, 1-(heptadecan-9-yl) 9-(4-(2-(2-(1-(2-((2-(4-(2-(2-(4-((9-(nonyloxy)-9-oxononanoyl)oxy)phenyl)acetoxy)ethyl)piperidin-1-yl)ethyl)disulfaneyl)ethyl)piperidin-4-yl)ethoxy)-2-oxoethyl)phenyl) nonanedioate] | – | – | equivalent or higher | equivalent or higher | – | – | luciferase expression and/or activity, rank among lipids tested [1]: highest; luciferase expression and/or activity compared to positive control SS-OP ceDNA LNP [1]: higher |
| CCCCCCCC/C=C\CCCCCCCC(=O)Oc1ccc(CC(=O)OCCC2CCN(CCSSCCN3CCC(CCOC(=O)Cc4ccc(OC(=O)CCCCCCCC(=O)OC(CCCC)CCCCCCCC)cc4)CC3)CC2)cc1 (stereo not drawn) [Lipid 7, 1-(4-(2-(2-(1-(2-((2-(4-(2-(2-(4-(oleoyloxy)phenyl)acetoxy)ethyl)piperidin-1-yl)ethyl)disulfaneyl)ethyl)piperidin-4-yl)ethoxy)-2-oxoethyl)phenyl) 9-(tridecan-5-yl) nonanedioate] | – | – | – | – | equivalent or higher | did not cause changes in body weight | – |
| CCCCCCCCCOC(=O)CCCCCCCC(=O)Oc1ccc(CC(=O)OCCC2CCN(CCSSCCN3CCC(CCOC(=O)Cc4ccc(OC(=O)CCCCCCCC(=O)OC(CCCC)CCCCCCCC)cc4)CC3)CC2)cc1 (stereo not drawn) [Lipid 10, 1-nonyl 9-(4-(2-oxo-2-(2-(1-(2-((2-(4-(2-(2-(4-((9-oxo-9-(tridecan-5-yloxy)nonanoyl)oxy)phenyl)acetoxy)ethyl)piperidin-1-yl)ethyl)disulfaneyl)ethyl)piperidin-4-yl)ethoxy)ethyl)phenyl) nonanedioate] | equivalent or higher | did not cause significant changes in body weight | – | – | – | – | – |
| CCCCCCCC/C=C\CCCCCCCC(=O)Oc1ccc(CC(=O)OCCC2CCN(CCSSCCN3CCC(CCOC(=O)Cc4ccc(OC(=O)CCCCCCCC(=O)OC(CC)CCCCCCCC)cc4)CC3)CC2)cc1 (stereo not drawn) [Lipid 6, 1-(4-(2-(2-(1-(2-((2-(4-(2-(2-(4-(oleoyloxy)phenyl)acetoxy)ethyl)piperidin-1-yl)ethyl)disulfaneyl)ethyl)piperidin-4-yl)ethoxy)-2-oxoethyl)phenyl) 9-(undecan-3-yl) nonanedioate] | – | – | – | – | equivalent or higher | did not cause changes in body weight | – |
| CCCCCCCCCOC(=O)CCCCCCCC(=O)Oc1ccc(CC(=O)OCCC2CCN(CCSSCCN3CCC(CCOC(=O)Cc4ccc(OC(=O)CCCCCCCC(=O)OC(CCCCCC)CCCCCCCC)cc4)CC3)CC2)cc1 (stereo not drawn) [Lipid 11, 1-nonyl 9-(4-(2-oxo-2-(2-(1-(2-((2-(4-(2-(2-(4-((9-oxo-9-(pentadecan-7-yloxy)nonanoyl)oxy)phenyl)acetoxy)ethyl)piperidin-1-yl)ethyl)disulfaneyl)ethyl)piperidin-4-yl)ethoxy)ethyl)phenyl) nonanedioate] | equivalent or higher | did not cause significant changes in body weight | – | – | – | – | – |
| CCCCCCCC/C=C\CCCCCCCC(=O)Oc1ccc(CC(=O)OCCC2CCN(CCSSCCN3CCC(CCOC(=O)Cc4ccc(OC(=O)CCCCCCCC(=O)OC(CCCCCCCC)CCCCCCCC)cc4)CC3)CC2)cc1 [Lipid 1, 1-(heptadecan-9-yl) 9-(4-(2-(2-(1-(2-((2-(4-(2-(2-(4-(oleoyloxy)phenyl)acetoxy)ethyl)piperidin-1-yl)ethyl)disulfaneyl)ethyl)piperidin-4-yl)ethoxy)-2-oxoethyl)phenyl) nonanedioate] | – | – | equivalent or higher | equivalent or higher | – | – | luciferase expression and/or activity, rank among lipids tested [1]: highest; luciferase expression and/or activity compared to positive control SS-OP ceDNA LNP [1]: higher |
| CCCCCCCCC(CCCCCCCC)OC(=O)CCCCCCCC(=O)Oc1ccc(CC(=O)OCCC2CCN(CCSSCCN3CCC(CCOC(=O)Cc4ccc(OC(=O)CCCCCCCC(=O)OC(CCCCCCCC)CCCCCCCC)cc4)CC3)CC2)cc1 [Lipid 5, O′1,O1-((((((disulfanediylbis(ethane-2,1-diyl))bis(piperidine-1,4-diyl))bis(ethane-2,1-diyl))bis(oxy))bis(2-oxoethane-2,1-diyl))bis(4,1-phenylene)) 9,9′-di(heptadecan-9-yl) di(nonanedioate)] | – | – | equivalent or higher | equivalent or higher | – | – | – |
| CCCCCCCC/C=C\CCCCCCCC(=O)Oc1ccc(CC(=O)OCCC2CCN(CCSSCCN3CCC(CCOC(=O)Cc4ccc(OC(=O)CCCCCCCC(=O)OC(CCCCCC)CCCCCCCC)cc4)CC3)CC2)cc1 (stereo not drawn) [Lipid 8, 1-(4-(2-(2-(1-(2-((2-(4-(2-(2-(4-(oleoyloxy)phenyl)acetoxy)ethyl)piperidin-1-yl)ethyl)disulfaneyl)ethyl)piperidin-4-yl)ethoxy)-2-oxoethyl)phenyl) 9-(pentadecan-7-yl) nonanedioate] | – | – | – | – | equivalent or higher | did not cause changes in body weight | – |
